Test results: patent US20130203706A1, “COMPOUNDS AND METHODS FOR THE TREATMENT OR PREVENTION OF FLAVIVIRUS INFECTIONS” (Vertex Pharmaceuticals Incorporated, priority 2011, published 2013)

Assay: PK parameters of prodrugs after oral gavage to rats (plasma levels of prodrug and active metabolite by LC/MS/MS)
Type: in vivo
Details: orally by gavage, 3 mg/kg, 0.5% MC/0.5% Tween 80/99% water, plasma up to 24 hrs post dose, FIGS. 3-5
Protocol: The prodrug whose PK parameters are to be determined can be formulated as a solution in 0.5% MC/0.5% Tween 80/99% water and administered orally by gavage to rats at a dose of 3 mg/kg. Rats are weighed the day before the study. Rat plasma is sampled predose and at 15, 30 min, 1, 2, 3, 4, 6, 8, 12 and 24 hrs post dose using Instech automatic blood sampling equipment. Blood is collected in tubes containing K2-EDTA and 110 uL plasma are extracted for analysis. Rats are fed ad lib and standard IACUC and SOP protocols are followed. Plasma samples and dose samples are analyzed using LC/MS/MS for both the prodrug compound and the active metabolite. PK parameters for both analytes for each subject are calculated using the measured dose of prodrug. The PK parameters of a prodrug of the invention (compound 10) was measured as described in the preceding paragraph, and are depicted in FIG. 3.

| SMILES | in vivo conversion of prodrug into active metabolite |
| --- | --- |
| CC(C)[C@H](N)C(=O)O[C@H]1CC[C@H](N(c2cc(C#CC(C)(C)C)sc2C(=O)O)C(=O)[C@H]2CC[C@H](C)CC2)CC1 [Compound 1] | in vivo converted into their active metabolites |
| C[C@@H](N)C(=O)O[C@H]1CC[C@H](N(c2cc(C#CC(C)(C)C)sc2C(=O)O)C(=O)[C@H]2CC[C@H](C)CC2)CC1 [Compound 10] | in vivo converted into the —OH active metabolite |
| CC(C)C#Cc1cc(N(C(=O)[C@H]2CC[C@H](C)CC2)[C@H]2CC[C@H](OC(=O)[C@H](C)N)CC2)c(C(=O)O)s1 [Compound 11] | in vivo converted into their active metabolites |
